Columns and labels:
Egr2 and Egr3 = assay: Real-time PCR of anergy related genes Egr2 and Egr3; type: cell-based, mouse; settings: 2 h and 16 h after T cell activation
Description: NFAT nuclear translocation without concomitant MAPK activation, which can be obtained by ionomycin treatment, implements a transcriptional program leading to T cell anergy (Macian et al., Cell 109:719-731 (2002)). […] Then, we hypothesized that activation of T cells in the presence of oATP could induce T cell anergy. […] The effect of oATP was not due to altered turn-over of the TCR/CD3 complex at the cell surface, as determined by FACS analysis (data not shown).

MAPK = assay: Protracted MAPK (p38, Erk) activation after 16 h CD3 stimulation; type: cell-based, mouse; settings: crt^−/− T cells, CD3 antibodies 16 h
[1] = test system: naïve CD4^+ T cells / CD4^+CD25^+ natural Treg cells; assay: Treg differentiation and expansion in vitro (anti-CD3, irradiated splenocytes, IL-2); type: cell-based
Experimental: Treg cell generation was analyzed after 7-10 days of culture by flow cytometry.

naive CD4 T cells = assay: T cell proliferation by CFSE dilution, plate-bound CD3 and CD28 mAbs; type: cell-based, mouse
NFAT1 = NFAT1 nuclear localization after T cell stimulation; type: cell-based, mouse
Experimental: In order to distinguish between TCR dependent and independent ERK activation, TCR signaling was blocked at 30 min after CD3 activation with the tyrosine kinase inhibitor PP2, which inhibits TCR dependent Ick/fyn src-like kinase activity.
NFAT nuclear translocation without concomitant MAPK activation, which can be obtained by ionomycin treatment, implements a transcriptional program leading to T cell anergy (Macian et al., Cell 109:719-731 (2002)). […] Then, we hypothesized that activation of T cells in the presence of oATP could induce T cell anergy.

NZB/NZW F1 mice = assay: Systemic lupus erythematosus / glomerulonephritis model; type: in vivo, mouse
Experimental: Graph representing protein concentration in urine from NZB/NZW Fi mice treated either with PBS (control) or oATP. 25-week -old female mice received either PBS or oATP intravenously (3 mM in 100 μl, five days treatment, 2 days break) for 6 weeks (see Example 14). Ten animals received PBS and ten animals received oATP.
Twenty-five week-old NZB/NZW F1 female mice were injected intravenously with either PBS or oATP (3 mM in 100 μl, five days treatment, 2 days break) for six weeks and examined for proteinuria (upper panel) and other indicated parameters (lower panels) (see Example 14). **: P<0.01; ***: P<0.001.
Effector/memory (CD44^+CD62L^−) CD4^+ cells recovered from the spleen of 25 week-old NZB/NZW F1 female mice treated either with PBS or oATP (upper panel); IFN-γ and IL-4 secretion by CD4^+ effector/memory T cells stimulated with plate bound anti-CD3 and anti-CD28 antibodies for 48 h detected by ELISA (lower panels) (see Example 14). **: P<0.01; ***: P<0.001.
Systemic lupus erythematosus (SLE), or its mouse model NZB/NZW F1 (Andrews et al., J. Exp. Med. 148:1198-1215 (1978)), is a chronic inflammatory disease characterized by polyclonal B cell activation with subsequent hypergammaglobulinemia and organ injury caused by immune complex deposits. Because CD4^+ T cells play a crucial role in the onset and propagation of the disease, we analyzed whether oATP treatment might ameliorate disease symptoms. Female NZB/NZW F1 mice at 25 weeks old (when most animals display proteinuria) received either PBS or oATP intravenously (3 mM in 100 μl, five days treatment, 2 days break) for 6 weeks. The proteinuria values were measured before the first treatment and at regular intervals after three weeks of oATP administration. […] Restimulation of sorted effector/memory T cells led to lower levels of IL-4 and IFNγ secretion in cells derived from oATP treated animals (18. 16, lower panels).

Nc1ncnc2c1ncn2[C@@H](C=O)O[C@@H](C=O)COP(=O)(O)OP(=O)(O)OP(=O)(O)O [oATP]
Egr2 and Egr3 transcripts (Egr2 and Egr3): significant upregulation
prolonged activation of MAPK (p38 MAPK and Erk) (MAPK): almost completely abolished
Foxp3 by quantitative RT-PCR ([1]; first 6 days after anti-CD3 stimulation): progressive upregulation
percentage of CD4^+CD25^highFoxp3^+ Treg cells ([1]; naïve CD4^+ T cells, oATP 100 μM): significantly enhanced
expansion of Treg cells, Foxp3 expression level ([1]; sorted CD4^+CD25^+ natural Treg cells, oATP 100 μM): higher expression levels of Foxp3
T cell proliferation (CFSE dilution) (naive CD4 T cells): almost completely inhibited
nuclear localization of NFAT1 (NFAT1): did not significantly affect
cellular damage due to toxicity, PI staining versus untreated (crt^−/− CD4^+ T cells): did not reveal any difference
proteinuria levels (NZB/NZW F1 mice; 3 mM in 100 μl i.v., five days treatment, 2 days break, 6 weeks): remained similar to pre-treatment levels
IL-4 and IFNγ secretion of restimulated sorted effector/memory T cells (NZB/NZW F1 mice; anti-CD3 and anti-CD28, 48 h, ELISA): lower levels
Histopathological scoring of kidneys: glomerular proliferation, lymphomonocytic infiltration and immune complex deposition (NZB/NZW F1 mice; mouse, in vivo): significant reduction
number of effector/memory T cells in spleen and lymph nodes (NZB/NZW F1 mice; mouse, in vivo): significantly reduced
